Data on 33 compounds can be found in patent publication US8071584B2 (GlaxoSmithKline LLC, priority 2007, dated 2011).

Structures are written as SMILES. Some results are limits rather than exact numbers.

The test system of one experiment is human monocyte stimulated cytokine production (TNF-α). Description: Monocyte assay (LPS-stimulated TNF-α production). The class given is cell-based. Particulars: 300 nM, human monocytes, LPS. The method, then: Effect of IKK-β inhibition on human monocyte stimulated cytokine production was assessed as follows: Monocytes were isolated from heparinized whole blood by Ficoll gradient, followed by purification of CD14+ cells using MACS magnetic cell separation beads. Isolated monocytes were then adhered to 96-well culture plates at 1×10^6 cells/mL in RPMI 1640 10% FBS (JRH Biosciences, Lenexa Kans.) for 2 h. Test compounds are added to the wells 30 minutes prior to stimulation with a final vehicle concentration of 0.1% DMSO. Monocytes were activated by the addition of 200 ng/mL endotoxin (LPS; E. coli serotype 026:B6) (Sigma, St. Louis, Mo.) and incubated for 24 hrs at 37 C. Cell-free supernates were analyzed by Alphascreen™ (Perkin Elmer, Waltham, Mass.) for TNF-α using R&D Systems matched pair Abs. Viability of the cells was determined by 10% trypan blue exclusion.
For orientation: inhibition means the relative decrease from the control value, in per cent. Read a low inhibition as little suppression. In turn, `CC(C)[C@H]1C[C@H](c2c[nH]c3c(C(N)=O)cc(-c4ccccc4)cc23)CCS1(=O)=O` (racemic) [Example 242, racemic-3-[(trans)-2-(1-Methylethyl)-1,1-dioxidotetrahydro-2H-thiopyran-4-yl]-5-phenyl-1H-indole-7-carboxamide] had an inhibition at 0.3 µM of 0 to 100%. For `NC(=O)c1cc(-c2csc(CN3CCC3)c2)cc2c(C3CC4CCC(C3)S4(=O)=O)c[nH]c12` (stereo not drawn) [Example 204, 3-[(3-endo)-8,8-Dioxido-8-thiabicyclo[3.2.1]oct-3-yl]-5-[5-(1-azetidinylmethyl)-3-thienyl]-1H-indole-7-carboxamide], the inhibition at 0.3 µM fell in the range of 0 to 100%. In turn, `NC(=O)c1cc(-c2ccccc2)cc2c(C3CC4CCC(C3)S4(=O)=O)c[nH]c12` (stereo not drawn) [Example 192, 3-[(3-endo)-8,8-Dioxido-8-thiabicyclo[3.2.1]oct-3-yl]-5-phenyl-1H-indole-7-carboxamide] registered an inhibition at 0.3 µM of 0 to 100%. Take `NC(=O)c1cc(-c2ccc(F)cc2)cc2c(C3CCCS(=O)(=O)C3)c[nH]c12` (stereo not drawn) [Example 220, 3-(1,1-Dioxidotetrahydro-2H-thiopyran-3-yl)-5-(4-fluorophenyl)-1H-indole-7-carboxamide]: the inhibition at 0.3 µM was in the range of 0 to 100%. The compound `NC(=O)c1cc(-c2ccccc2)cc2c(C3CCCS(=O)(=O)C3)c[nH]c12` (stereo not drawn) [Example 221, 3-(1,1-Dioxidotetrahydro-2H-thiopyran-3-yl)-5-phenyl-1H-indole-7-carboxamide] came in with an inhibition at 0.3 µM of 0 to 100%.

Staying with this experiment, now noted: human CD14+ monocytes, 200 ng/mL LPS, 24 hrs, values given as 'about', read-out: pIC50 in the monocyte assay (converted).
In the case of `NC(=O)c1cc(-c2csc(CN3CCCCCC3)c2)cc2c(C3CC4CCC(C3)S4(=O)=O)c[nH]c12` (stereo not drawn) [Example 203, 3-[(3-endo)-8,8-Dioxido-8-thiabicyclo[3.2.1]oct-3-yl]-5-[5-(hexahydro-1H-azepin-1-ylmethyl)-3-thienyl]-1H-indole-7-carboxamide], the IC50 is 5.01 to 1000 nM. Consider `NC(=O)c1c(F)c(-c2ccccc2)cc2c(C3CCS(=O)(=O)CC3)c[nH]c12` [Example 168, 3-(1,1-Dioxidotetrahydro-2H-thiopyran-4-yl)-6-fluoro-5-phenyl-1H-indole-7-carboxamide], for which the IC50 was 5.01 to 1000 nM. For `NC(=O)c1cc(-c2ccoc2)cc2c(C3CCS(=O)(=O)C3)c[nH]c12` (stereo not drawn) [Example 189, 3-(1,1-Dioxidotetrahydro-3-thienyl)-5-(3-furanyl)-1H-indole-7-carboxamide], the IC50 is > 1000 nM.

Consider `NC(=O)c1cc(-c2ccccc2)cc2c(C3CCS(=O)(=O)CC3)c[nH]c12` [Example 1, 3-(1,1-Dioxidotetrahydro-2H-thiopyran-4-yl)-5-phenyl-1H-indole-7-carboxamide], for which the IC50 was 5.01 to 1000 nM. Turning to `NC(=O)c1cc(-c2nc(Br)cs2)cc2c(C3CCS(=O)(=O)CC3)c[nH]c12` [Example 83, 5-(4-Bromo-1,3-thiazol-2-yl)-3-(1,1-dioxidotetrahydro-2H-thiopyran-4-yl)-1H-indole-7-carboxamide], the IC50 is > 1000 nM. On the same count and under the same terms, for `N#CCc1ccc(-c2cc(C(N)=O)c3[nH]cc(C4CCS(=O)(=O)CC4)c3c2)cc1` [Example 65, 5-[4-(Cyanomethyl)phenyl]-3-(1,1-dioxidotetrahydro-2H-thiopyran-4-yl)-1H-indole-7-carboxamide] the value was 5.01 to 1000 nM; for `NC(=O)c1cc(-c2ccnc(Cl)c2)cc2c(C3CCS(=O)(=O)CC3)c[nH]c12` [Example 68, 5-(2-Chloro-4-pyridinyl)-3-(1,1-dioxidotetrahydro-2H-thiopyran-4-yl)-1H-indole-7-carboxamide], 5.01 to 1000 nM; for `NC(=O)c1cc(-c2csc(CN3CCCC3)c2)cc2c(C3CC4CCC(C3)S4(=O)=O)c[nH]c12` (stereo not drawn) [Example 205, 3-[(3-endo)-8,8-Dioxido-8-thiabicyclo[3.2.1]oct-3-yl]-5-[5-(1-pyrrolidinylmethyl)-3-thienyl]-1H-indole-7-carboxamide], 5.01 to 1000 nM. As to `NC(=O)c1cc(-c2ccco2)cc2c(C3CCCS(=O)(=O)C3)c[nH]c12` (stereo not drawn) [Example 218, 3-(1,1-Dioxidotetrahydro-2H-thiopyran-3-yl)-5-(2-furanyl)-1H-indole-7-carboxamide], the IC50 is 5.01 to 1000 nM. Turning to `Cc1n[nH]c(C)c1-c1cc(C(N)=O)c2[nH]cc(C3CCS(=O)(=O)CC3)c2c1` [Example 140, 5-(3,5-Dimethyl-1H-pyrazol-4-yl)-3-(1,1-dioxidotetrahydro-2H-thiopyran-4-yl)-1H-indole-7-carboxamide], the IC50 was > 1000 nM. With `CC(C)N(C)Cc1cc(-c2cc(C(N)=O)c3[nH]cc(C4CCS(=O)(=O)CC4)c3c2)cs1` [Example 74, 3-(1,1-Dioxidotetrahydro-2H-thiopyran-4-yl)-5-(5-{[methyl(1-methylethyl)amino]methyl}-3-thienyl)-1H-indole-7-carboxamide], the IC50 was 5.01 to 1000 nM.

For the compound `NC(=O)c1cc(-c2ccsc2)c(F)c2c(C3CCS(=O)(=O)CC3)c[nH]c12` [Example 170, 3-(1,1-Dioxidotetrahydro-2H-thiopyran-4-yl)-4-fluoro-5-(3-thienyl)-1H-indole-7-carboxamide], the IC50 was 5.01 to 1000 nM. In the case of `NC(=O)c1cc(-c2csc(CN3CCC3)c2)cc2c(C3CCS(=O)(=O)C3)c[nH]c12` (stereo not drawn) [Example 185, 5-[5-(1-Azetidinylmethyl)-3-thienyl]-3-(1,1-dioxidotetrahydro-3-thienyl)-1H-indole-7-carboxamide], the IC50 is 5.01 to 1000 nM. Consider `NC(=O)c1cc(-c2ccsc2)cc2c(C3CCCS(=O)(=O)C3)c[nH]c12` (stereo not drawn) [Example 219, 3-(1,1-Dioxidotetrahydro-2H-thiopyran-3-yl)-5-(3-thienyl)-1H-indole-7-carboxamide], for which the IC50 was 5.01 to 1000 nM.

Turning to `CN(C)Cc1cccc(-c2cc(C(N)=O)c3[nH]cc(C4CCS(=O)(=O)CC4)c3c2)c1` [Example 79], the IC50 is 5.01 to 1000 nM. Take `CC1(C)CC(c2c[nH]c3c(C(N)=O)cc(-c4ccc(S(=O)(=O)C5CCCC5)s4)cc23)CCS1(=O)=O` (stereo not drawn) [Example 240, 5-[5-(Cyclopentylsulfonyl)-2-thienyl]-3-(2,2-dimethyl-1,1-dioxidotetrahydro-2H-thiopyran-4-yl)-1H-indole-7-carboxamide]: the IC50 was 5.01 to 1000 nM. As for `NC(=O)c1cc(-c2csc(CCCO)c2)cc2c(C3CCS(=O)(=O)CC3)c[nH]c12` [Example 84, 3-(1,1-Dioxidotetrahydro-2H-thiopyran-4-yl)-5-[5-(3-hydroxypropyl)-3-thienyl]-1H-indole-7-carboxamide], the IC50 is 5.01 to 1000 nM. As to `NC(=O)c1cc(-c2ccoc2)cc2c([C@H]3CCS(=O)(=O)[C@@H](c4ccccc4)C3)c[nH]c12` (racemic) [Example 250, 3-(1,1-Dioxido-2-cis-phenyltetrahydro-2H-thiopyran-4-yl)-5-(3-furanyl)-1H-indole-7-carboxamide], the IC50 is 5.01 to 1000 nM.

Turning to `NC(=O)c1cc(-c2ccccc2)c(F)c2c(C3CCS(=O)(=O)CC3)c[nH]c12` [Example 169, 3-(1,1-Dioxidotetrahydro-2H-thiopyran-4-yl)-4-fluoro-5-phenyl-1H-indole-7-carboxamide], the IC50 was 5.01 to 1000 nM. As to `CC1(C)C[C@@H](c2c[nH]c3c(C(N)=O)cc(-c4ccc(F)cc4)cc23)CCS1(=O)=O` [Example 224, 3-[(4S)-2,2-Dimethyl-1,1-dioxidotetrahydro-2H-thiopyran-4-yl]-5-(4-fluorophenyl)-1H-indole-7-carboxamide], the IC50 was > 1000 nM.

In the case of `CNCc1cccc(-c2cc(C(N)=O)c3[nH]cc(C4CCS(=O)(=O)CC4)c3c2)c1` [Example 78, 3-(1,1-Dioxidotetrahydro-2H-thiopyran-4-yl)-5-{3-[(methylamino)methyl]phenyl}-1H-indole-7-carboxamide], the IC50 is 5.01 to 1000 nM. With `CCN(CC)Cc1cc(-c2cc(C(N)=O)c3[nH]cc(C4CCS(=O)(=O)CC4)c3c2)cs1` [Example 76, 5-{5-[(diethylamino)methyl]-3-thienyl}-3-(1,1-dioxidotetrahydro-2H-thiopyran-4-yl)-1H-indole-7-carboxamide], the IC50 was 5.01 to 1000 nM. Regarding `NC(=O)c1cc(-c2ccccc2)cc2c(C3CCCS(=O)(=O)CC3)c[nH]c12` (stereo not drawn) [Example 212, 3-(1,1-Dioxido-4-thiepanyl)-5-phenyl-1H-indole-7-carboxamide], the IC50 was 5.01 to 1000 nM. As for `CN(C)Cc1cc(-c2cc(C(N)=O)c3[nH]cc(CC4CCS(=O)(=O)C4)c3c2)cs1` (stereo not drawn) [Example 261, 5-{5-[(Dimethylamino)methyl]-3-thienyl}-3-[(1,1-dioxidotetrahydro-3-thienyl)methyl]-1H-indole-7-carboxamide], the IC50 was 5.01 to 1000 nM. As for `NC(=O)c1cc(-c2ccsc2)cc2c([C@H]3CCS(=O)(=O)[C@@H](c4ccccc4)C3)c[nH]c12` [Example 248, 3-[(2R,4S)1,1-dioxido-2-phenyltetrahydro-2H-thiopyran-4-yl]-5-(3-thienyl)-1H-indole-7-carboxamide], the IC50 is > 1000 nM.

Take `COC(=O)c1cc(-c2ccc(F)cc2)cc2c([C@@H]3CCSC3)c[nH]c12` [Example 172, Methyl 5-(4-fluorophenyl)-3-[(3S)-tetrahydro-3-thienyl]-1H-indole-7-carboxylate]: the IC50 was 5.01 to 1000 nM. As for `NC(=O)c1cc(-c2csc(CC3CC3)c2)cc2c(C3CCS(=O)(=O)CC3)c[nH]c12` [Example 97, 5-[5-(Cyclopropylmethyl)-3-thienyl]-3-(1,1-dioxidotetrahydro-2H-thiopyran-4-yl)-1H-indole-7-carboxamide], the IC50 was 5.01 to 1000 nM. With `NC(=O)c1cc(-c2cccs2)cc2c(C3CCS(=O)(=O)C3)c[nH]c12` (stereo not drawn) [Example 190, 3-(1,1-Dioxidotetrahydro-3-thienyl)-5-(2-thienyl)-1H-indole-7-carboxamide], the IC50 is 5.01 to 1000 nM.
